This is an account of results in patent US20070020196A1, “Inhalant formulation containing sulfoalkyl ether cyclodextrin and corticosteroid prepared from a unit dose suspension” (priority 2003, published 2007).

Data set [1] in a line: Density of CAPTISOL solutions (pycnometer). The following applies: 25° C. The class given is physicochemical. Here is the method: The concentration of SAE-CD in solution can be expressed on a weight to weight or weight to volume basis; however, these two units are interconvertible. When a known weight of cyclodextrin is dissolved in a known weight of water, the % w/w cyclodextrin concentration is determined by dividing the cyclodextrin weight in grams by the total weight (cyclodextrin+water weight) in like units and multiplying by 100. When a known weight of cyclodextrin is dissolved to a known total volume, the % w/v cyclodextrin concentration is determined by dividing the cyclodextrin weight in grams by the total volume in milliliters and multiplying by 100. The correlation between the two cyclodextrin concentration percentages was experimentally determined by preparing various % w/w cyclodextrin solutions and measuring the density of each with a pycnometer at 25° C.

Data set [2] in a line: Viscosity of aqueous SAE-CD solutions (cone and plate viscometer). It is filed as physicochemical. The following applies: 25 C. How it is done: The performance of an inhalable solution of the invention in a nebulizer may depend upon the viscosity of the solution in its reservoir, the nebulization solution. Viscosity of the inhalable composition can have an impact on percentage of nebulization composition emitted from a nebulizer, output rate of nebulized corticosteroid and droplet size distribution.
The viscosity of aqueous solutions containing SAE-CD were measured using a cone and plate viscometer.
A Brookfield Programmable DV-III+ Rheometer, CPE-40 cone and CPE 40Y plate (Brookfield Engineering Laboratories, Middleboro, Mass.) was used to make measurements on 0.5 ml samples at 1, 2, 3, 5 and 10 rpm. Samples were sheered for approximately 5 revolutions prior to each measurement. This allowed accurate rheological characterization of the samples. The temperature of all samples was equilibrated to 25+/−1 degree centigrade using a double wall viscometer cone supplied with water from an electronically controlled thermostatic circulating water bath (Model, 8001, Fisher Scientific, Pittsburgh, Pa.). The viscometer was calibrated using 5 and 50 centipoise using silicon oil calibration standards. Viscosity measurements were made at 5 or more rotation speeds to look for sheer thinning behavior (viscosities that decrease as the rate of sheer increases). Higher rotation speeds result in increased rates of sheer.

Data set [3] is described as follows: Tonicity of SBE7-β-CD solutions with respect to blood. It is filed as physicochemical. The following applies: in water. From the text: An osmotic agent can be used in the compositions to enhance the overall comfort to the patient upon delivery of the corticosteroid composition. Osmotic agents can be added to adjust the tonicity of SAE-CD containing solutions. Osmolality is related to concentration of SAE-CD in water. At SBE7-β-CD concentrations below about 11-13% w/v, the solutions are hypotonic or hypoosmotic with respect to blood and at SBE7-β-CD concentrations above about 11-13% w/v the SBE7-β-CD containing solutions are hypertonic or hyperosmotic with respect to blood. When red blood cells are exposed to solutions that are hypo- or hypertonic, they can shrink or swell in size, which can lead to hemolysis. As noted above and in FIG. 1, SBE-CD is less prone to induce hemolysis than other derivatized cyclodextrins. Suitable osmotic agents include any low molecular weight water-soluble species pharmaceutically approved for pulmonary and nasal delivery such as sodium chloride, lactose and glucose. The formulation of the invention can also include biological salt(s), potassium chloride, or other electrolyte(s).

The next data set concerns red blood cells. Conditions: concentrations typically used to solubilize pharmaceutical formulations; cited from earlier work.

On to “Sulfobutyl ether β-cyclodextrin [Captisol]”, for which the Density turned out to be 1.041 g/mL in data set [1] (8.5 % w/w Captisol); 1.149 g/mL in data set [1] (29.8 % w/w Captisol); 1.202 g/mL in data set [1] (39.7 % w/w Captisol); 1.259 g/mL in data set [1] (49.4 % w/w Captisol); 1.320 g/mL in data set [1] (59.4 % w/w Captisol); 1.095 g/mL in data set [1] ([…] w/w Captisol). The Viscosity in data set [2] (8.5 % w/w Captisol) is listed as 1.75 Cp; in data set [2] (29.8 % w/w Captisol) it was 5.91 Cp; in data set [2] (39.7 % w/w Captisol), 17.0 Cp; in data set [2] (49.4 % w/w Captisol), 51.9 Cp; in data set [2] (59.4 % w/w Captisol) it was 527.0 Cp; in data set [2] ([…] w/w Captisol) it was 2.78 Cp. In data set [3], the “SBE7-β-CD concentration below which solutions are hypotonic and above which hypertonic with respect to blood” value is on record as 11-13 % w/v. The Hemolytic behavior result with red blood cells is “essentially no hemolytic behavior”.
